Source: patent US9981962B2, “Pyrazole derivatives as NIK inhibitors” (Janssen Pharmaceutica NV, priority 2014, dated 2018)

Legend:
[1] = target: T1, Recombinant Human NF-kappaB-Inducing Kinase (NIK/MAP3K14) (Homo sapiens, UniProt Q99558); assay: Biological Assay A: inhibition of recombinant human NIK/MAP3K14 activity (MSD, MBP substrate); settings: 10 nM NIK, 25 μM ATP, 1 h at 25° C.; averaged over all measurements on all batches; read-out: Biochemical (MSD IC50)
Experimental: Inhibition of Recombinant Human NF-kappaB-Inducing Kinase (NIK/MAP3K14) Activity Assay buffer was 50 mM Tris pH 7.5 containing 1 mM EGTA (ethylene glycol tetraacetic acid), 1 mM DTT (dithiothreitol), 0.1 mM Na3VO4, 5 mM MgCl2, 0.01% Tween® 20. Assays were carried out in 384 well Mesoscale high binding plates which had been coated with myelin basic protein (MBP) and blocked with bovine serum albumin to prevent non-specific protein binding. All compounds tested were dissolved in dimethyl sulfoxide (DMSO) and further dilutions were made in assay buffer. Final DMSO concentration was 1% (v/v) in assays. Incubations consisted of compound (1% DMSO in control and blank wells), 25 μM Adenosine-5′-triphosphate (ATP), and 10 nM NIK/MAP3K14 substituting enzyme with buffer in the blank wells. Incubations were carried out for 1 h at 25° C. and were followed by washing and sequential incubation with rabbit anti-phospho-MBP and anti-rabbit Ig Sulfotag antibody before reading bound Sulfotag on a Mesoscale Discovery. Signal obtained in the wells containing blank samples was subtracted from all other wells and ICso's were determined by fitting a sigmoidal curve to % inhibition of control versus Log10 compound concentration.

LP-1 cells = assay: Biological Assay C: antiproliferative activity on LP-1 cells (CellTiter-Glo); type: cell-based, human; settings: Homo sapiens, LP-1, 72 h, 72 hr treatment, averaged values
Experimental: (§1) Determination of Antiproliferative Activity on LP-1, L-363 and JJN-3 Cells
(§2) All compounds tested were dissolved in DMSO and further dilutions were made in culture medium. Final DMSO concentration was 0.3% (v/v) in cell proliferation assays. Viability was assessed using CellTiter-Glo cell viability assay kit (Promega). The human LP-1, L-363 and JJN-3 cells (DSMZ) were cultured in RPMI 1640 medium supplemented with 2 mM L-glutamine, and 10% fetal calf serum (PAA). Cells were routinely kept as suspension cells at 37° C. in a humidified 5% CO2 atmosphere. Cells were passaged at a seeding density of 0.2×10^6/ml twice a week. Cells were seeded in black tissue culture treated 96-well plates (Perkin Elmer). Densities used for plating ranged from 2,000 to 6,000 cells per well in a total volume of 75 μl medium. After twenty four hours, drugs and/or solvents were added (25 μl) to a final volume of 100 μl. Following 72 hr of treatment plates were removed from the incubator and allowed to equilibrate to room temperature for approx 10 min. 100 ut CellTiter-Glo reagent was added to each well that was then covered (Perkin Elmer Topseal) and shaken on plate shaker for 10 min. Luminescence was measured on a HTS Topcount (Perkin Elmer). Within an experiment, the results for each treatment were the mean of 2 replicate wells. For initial screening purposes, compounds were tested using a 9 point dilution curve (serial 1:3 dilutions). For each experiment, controls (containing no drug) and a blank incubation (containing cells read at the time of compound addition) were run in parallel. The blank value was subtracted from all control and sample values. For each sample, the mean value for cell growth (in relative light units) was expressed as a percentage of the mean value for cell growth of the control.

[2] = target: T1, Recombinant Human NF-kappaB-Inducing Kinase (NIK/MAP3K14); assay: Biological Assay A2: inhibition of auto-phosphorylation of recombinant human NIK/MAP3K14 (AlphaScreen); type: biochemical; settings: 0.2 nM GST-tagged NIK, 25 microM ATP, 1 h at 25° C., averaged values
Experimental: Inhibition of Auto-Phosphorylation of Recombinant Human NF-kappaB-Inducing Kinase (NIK/MAP3K14) Activity (AlphaScreen®)
NIK/MAP3K14 auto-phosphorylation activity was measured using the AlphaScreen® (αscreen) format (Perkin Elmer). All compounds tested were dissolved in dimethyl sulfoxide (DMSO) and further dilutions were made in assay buffer. Final DMSO concentration was 1% (v/v) in assays. Assay buffer was 50 mM Tris pH 7.5 containing 1 mM EGTA (ethylene glycol tetraacetic acid), 1 mM DTT (dithiothreitol), 0.1 mM Na3VO4, 5 mM MgCl2, 0.01% Tween® 20. Assays were carried out in 384 well Alphaplates (Perkin Elmer). Incubations consisted of compound, 25 microM Adenosine-5′-triphosphate (ATP), and 0.2 nM NIK/MAP3K14. Incubations were initiated by addition of GST-tagged NIK/MAP3K14 enzyme, carried out for 1 h at 25° C. and terminated by addition of stop buffer containing anti-phospho-IKK Ser176/180 antibody. Protein A Acceptor and Glutathione-Donor beads were added before reading using an EnVision® Multilabel Plate Reader (Perkin Elmer). Signal obtained in the wells containing blank samples was subtracted from all other wells and IC50's were determined by fitting a sigmoidal curve to % inhibition of control versus Log10 compound concentration.

JJN-3 cells = assay: Biological Assay C: antiproliferative activity on JJN-3 cells (CellTiter-Glo); type: cell-based, human; settings: Homo sapiens, JJN-3, 72 h, 72 hr treatment, averaged values
Experimental: as §1, §2

[3] = tested on: P-IKKα levels in L363 cells; assay: Biological Assay B: effect of compounds on P-IKKα levels in L363 cells; type: cell-based; settings: Homo sapiens, L-363, BAFF stimulated, 2 hr treatment, averaged values, read-out: IKKα Cellular IC50
Experimental: Effect of Compounds on P-IKKα Levels in L363 Cells
All compounds tested were dissolved in DMSO and further dilutions were made in culture medium. Final DMSO concentration was 1% (v/v) in cell assays. The human L363 cells (ATCC) were cultured in RPMI 1640 medium supplemented with GlutaMax and 10% fetal calf serum (PAA). Cells were routinely maintained at densities of 0.2×10^6 cells per ml—1×10^6 cells per ml at 37° C. in a humidified 5% CO2 atmosphere. Cells were passaged twice a week splitting back to obtain the low density. Cells were seeded in 96 well plates (Nunc 167008) at 2×10^6 per ml media in a volume of 75 μl per well plus 25 μl 1 μg/ml recombinant human B-cell activating factor (BAFF/BLyS/TNFSF13B). Seeded cells were incubated at 37° C. in a humidified 5% CO2 atmosphere for 24 hr. Drugs and/or solvents were added (20 μl) to a final volume of 120 μl. Following 2 hr treatment plates were removed from the incubator and cell lysis was achieved by the addition of 30 μl 5× lysis buffer followed by shaking on a plate shaker at 4° C. for 10 min. At the end of this incubation lysed cells were centrifuged at 800×g for 20 min at 4° C. and the lysate was assessed for P-IKKα levels by sandwich immuno-assay carried out in anti-rabbit antibody coated Mesoscale plates. Within an experiment, the results for each treatment were the mean of 2 replicate wells. For initial screening purposes, compounds were tested using an 8 point dilution curve (serial 1:3 dilutions). For each experiment, controls (containing MG132 and BAFF but no test drug) and a blank incubation (containing MG132 and BAFF and 10 μM ADS125117, a test concentration known to give full inhibition) were run in parallel. The blank incubation value was subtracted from all control and sample values. To determine the IC50 a sigmoidal curve was fitted to the plot of % inhibition of control P-IKKα levels versus Log10 compound concentration.

L-363 cells = assay: Biological Assay C: antiproliferative activity on L-363 cells (CellTiter-Glo); type: cell-based, human; settings: 72 hr treatment, averaged values
Experimental: as §1, §2

T1 sequence (Q99558 whole entry): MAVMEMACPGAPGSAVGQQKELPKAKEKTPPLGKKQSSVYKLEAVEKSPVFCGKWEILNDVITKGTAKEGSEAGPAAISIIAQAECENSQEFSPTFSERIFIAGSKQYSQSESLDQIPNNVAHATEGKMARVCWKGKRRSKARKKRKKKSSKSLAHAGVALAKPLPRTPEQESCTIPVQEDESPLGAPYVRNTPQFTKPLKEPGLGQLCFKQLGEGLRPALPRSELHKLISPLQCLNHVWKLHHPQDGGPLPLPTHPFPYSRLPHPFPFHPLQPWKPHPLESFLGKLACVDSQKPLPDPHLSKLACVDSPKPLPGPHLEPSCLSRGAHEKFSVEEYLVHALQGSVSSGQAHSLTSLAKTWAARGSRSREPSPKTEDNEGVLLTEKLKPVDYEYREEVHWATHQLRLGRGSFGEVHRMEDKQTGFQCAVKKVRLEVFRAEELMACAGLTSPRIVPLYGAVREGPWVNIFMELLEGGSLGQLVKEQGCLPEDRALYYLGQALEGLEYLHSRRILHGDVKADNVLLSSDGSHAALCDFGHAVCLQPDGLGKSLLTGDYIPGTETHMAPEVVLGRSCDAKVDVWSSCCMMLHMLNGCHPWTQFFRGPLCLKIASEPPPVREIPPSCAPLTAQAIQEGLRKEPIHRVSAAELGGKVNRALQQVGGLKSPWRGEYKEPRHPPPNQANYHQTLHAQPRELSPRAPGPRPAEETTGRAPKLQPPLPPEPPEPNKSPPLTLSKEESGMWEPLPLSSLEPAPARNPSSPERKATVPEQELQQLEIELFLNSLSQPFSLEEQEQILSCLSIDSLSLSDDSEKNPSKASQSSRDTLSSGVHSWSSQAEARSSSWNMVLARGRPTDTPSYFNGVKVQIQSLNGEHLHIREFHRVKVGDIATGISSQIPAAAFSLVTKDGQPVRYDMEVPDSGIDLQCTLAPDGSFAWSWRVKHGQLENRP

| SMILES | IC50 [1] | EC50 (LP-1 cells) | IC50 [2] | EC50 (JJN-3 cells) | IC50 [3] | EC50 (L-363 cells; Homo sapiens, L-363, 72 h) | EC50 (L-363 cells) |
| --- | --- | --- | --- | --- | --- | --- | --- |
| CC(C)(O)C#Cc1ccc2[nH]cc(-c3cn[nH]c3)c2c1 [Compound 1] | 28 nM | 320 nM | 22 nM | 432 nM | 122 nM | 245 nM | – |
| CCn1cc(-c2c[nH]nc2N)c2cc(C#CC(C)(C)O)ccc21 [Compound 2] | 44 nM | 1420 nM | 43 nM | 733 nM | 87 nM | 990 nM | – |
| CCn1cc(-c2c[nH]nc2C)c2cc(C#CC(C)(C)O)ccc21 [Compound 3] | 71 nM | 3160 nM | 35 nM | 1860 nM | 139 nM | 3120 nM | – |
| CCn1cc(-c2c[nH]nc2C(F)(F)F)c2cc(C#CC(C)(C)O)ccc21 [Compound 4] | 581 nM | – | 350 nM | – | – | – | – |
| CC(C)(O)C#Cc1ccc2c(c1)c(-c1cn[nH]c1)cn2CC1CCOC1 (centres unmarked) [Compound 5] | 38 nM | 1890 nM | 25 nM | 1410 nM | 145 nM | 1830 nM | – |
| CC(C)(O)C#Cc1ccc2c(c1)c(-c1cn[nH]c1)cn2CC1COC1 [Compound 6] | 6 nM | 1950 nM | 66 nM | 1080 nM | 73 nM | 704 nM | – |
| COCCn1cc(-c2cn[nH]c2)c2cc(C#CC(C)(C)O)ccc21 [Compound 7] | 11 nM | 2180 nM | 73 nM | 1410 nM | 175 nM | 1180 nM | – |
| CC(C)n1cc(-c2cn[nH]c2)c2cc(C#CC(C)(C)O)ccc21 [Compound 8] | 13 nM | 219 nM | 14 nM | 218 nM | 18 nM | 221 nM | – |
| CCn1cc(-c2cn[nH]c2)c2cc(C#CC(C)(C)O)ccc21 [Compound 9] | 8 nM | 298 nM | 43 nM | 418 nM | 54 nM | 332 nM | – |
| CC(C)(O)C#Cc1ccc2c(c1)c(-c1cn[nH]c1)cn2CC(C)(C)O [Compound 10] | 38 nM | 947 nM | 110 nM | 723 nM | 111 nM | 759 nM | – |
| CC(C)(O)C#Cc1ccc2c(c1)c(-c1cn[nH]c1)cn2CCO [Compound 11] | 16 nM | 483 nM | 65 nM | 394 nM | 83 nM | 340 nM | – |
| CC(C)(O)C#Cc1cc2c(-c3c[nH]nc3Cl)cn(CCCO)c2cc1F [Compound 22] | – | 1350 nM | 11 nM | 255 nM | 32 nM | 430 nM | – |
| CCn1cc(-c2c[nH]nc2Cl)c2cc(C#CC(C)(C)O)c(F)cc21 [Compound 24] | – | 1580 nM | 11 nM | 734 nM | 127 nM | 683 nM | – |
| [2H]C([2H])([2H])C(O)(C#Cc1cc2c(-c3c[nH]nc3Cl)cn(C3CCCN(CC)C3)c2cc1F)C([2H])([2H])[2H] (centres unmarked) [Compound 30] | – | 397 nM | 126 nM | 379 nM | – | – | 201 nM |
| CN1CCC(n2cc(-c3c[nH]nc3Cl)c3cc(C#CC(C)(O)c4nccs4)c(F)cc32)CC1 (centres unmarked) [Compound 33] | – | 1610 nM | 18 nM | 624 nM | – | 875 nM | – |
| Cc1cc(C(C)(O)C#Cc2cc3c(-c4c[nH]nc4Cl)cn(C4CCN(C)CC4)c3cc2F)no1 (centres unmarked) [Compound 34] | – | 2450 nM | 42 nM | 1380 nM | – | 1220 nM | – |
| Cc1nc(C(C)(O)C#Cc2cc3c(-c4c[nH]nc4Cl)cn(C4CCN(C)CC4)c3cc2F)no1 (centres unmarked) [Compound 35] | – | 4580 nM | 84 nM | 1360 nM | – | 1090 nM | – |
| CN1CCC(n2cc(-c3c[nH]nc3Cl)c3cc(C#CC(C)(O)c4ncccn4)c(F)cc32)CC1 (centres unmarked) [Compound 37] | – | 2510 nM | 162 nM | 4470 nM | – | 2880 nM | – |
